The kinase profiling compilation of Christmann-Franck et al. (2016)

How the values were obtained:
Experiment in all cases: KINOMEscan competition binding
Details in all cases: compound 1.0 µM
VRK2 (human) = VRK2 (human) (UniProt Q86Y07)
[1] = system: RET (human), P07949 [V804L]
CDK15 (human) = CDK15 (human) (UniProt Q96Q40)
CDK9 (human) = CDK9 (human) (UniProt P50750)
EIF2AK2 (human) = EIF2AK2 (human) (UniProt P19525)
CDK14 (human) = CDK14 (human) (UniProt O94921)
ACVR1B (human) = ACVR1B (human) (UniProt P36896)
CDKL1 (human) = CDKL1 (human) (UniProt Q00532)
FYN (human) = FYN (human) (UniProt P06241)
PDPK1 (human) = PDPK1 (human) (UniProt O15530)
ROS1 (human) = ROS1 (human) (UniProt P08922)
MST1R (human) = MST1R (human) (UniProt Q04912)
DAPK2 (human) = DAPK2 (human) (UniProt Q9UIK4)
[2] = system: ABL1 (human), P00519 [M351T]
RET (human) = RET (human) (UniProt P07949)
RET (human), sequence (P07949 whole entry, looked up): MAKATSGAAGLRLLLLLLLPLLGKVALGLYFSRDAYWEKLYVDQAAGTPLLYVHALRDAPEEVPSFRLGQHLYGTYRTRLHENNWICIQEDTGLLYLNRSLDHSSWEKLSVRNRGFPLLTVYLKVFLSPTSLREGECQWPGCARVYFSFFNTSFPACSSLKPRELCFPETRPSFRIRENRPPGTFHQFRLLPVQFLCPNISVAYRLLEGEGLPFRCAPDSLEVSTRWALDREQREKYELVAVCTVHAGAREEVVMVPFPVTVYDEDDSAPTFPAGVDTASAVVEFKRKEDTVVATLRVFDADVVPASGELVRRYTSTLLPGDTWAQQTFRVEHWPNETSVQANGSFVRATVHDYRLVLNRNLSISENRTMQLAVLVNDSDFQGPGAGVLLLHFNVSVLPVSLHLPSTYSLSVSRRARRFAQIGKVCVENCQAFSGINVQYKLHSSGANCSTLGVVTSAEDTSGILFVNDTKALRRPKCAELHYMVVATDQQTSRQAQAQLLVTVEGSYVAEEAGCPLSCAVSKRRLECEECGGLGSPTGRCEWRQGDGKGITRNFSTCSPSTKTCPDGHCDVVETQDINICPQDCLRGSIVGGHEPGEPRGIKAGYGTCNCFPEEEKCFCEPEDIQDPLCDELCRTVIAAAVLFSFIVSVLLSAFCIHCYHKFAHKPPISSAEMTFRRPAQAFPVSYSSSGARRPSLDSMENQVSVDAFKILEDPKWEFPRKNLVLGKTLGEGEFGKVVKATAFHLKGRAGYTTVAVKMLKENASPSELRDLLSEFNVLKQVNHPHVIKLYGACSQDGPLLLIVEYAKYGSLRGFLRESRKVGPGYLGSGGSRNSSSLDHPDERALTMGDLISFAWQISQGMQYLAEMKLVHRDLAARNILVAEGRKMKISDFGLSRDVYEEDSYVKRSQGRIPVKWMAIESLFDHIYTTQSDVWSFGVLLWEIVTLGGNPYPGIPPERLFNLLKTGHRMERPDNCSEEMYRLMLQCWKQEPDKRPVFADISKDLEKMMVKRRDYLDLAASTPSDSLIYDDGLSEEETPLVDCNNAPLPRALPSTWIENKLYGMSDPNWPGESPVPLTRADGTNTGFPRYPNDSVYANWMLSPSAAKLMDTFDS

CAMK4 (human) = CAMK4 (human) (UniProt Q16566)
SRPK3 (human) = SRPK3 (human) (UniProt Q9UPE1)
SRPK3 (human), sequence (Q9UPE1 whole entry, looked up): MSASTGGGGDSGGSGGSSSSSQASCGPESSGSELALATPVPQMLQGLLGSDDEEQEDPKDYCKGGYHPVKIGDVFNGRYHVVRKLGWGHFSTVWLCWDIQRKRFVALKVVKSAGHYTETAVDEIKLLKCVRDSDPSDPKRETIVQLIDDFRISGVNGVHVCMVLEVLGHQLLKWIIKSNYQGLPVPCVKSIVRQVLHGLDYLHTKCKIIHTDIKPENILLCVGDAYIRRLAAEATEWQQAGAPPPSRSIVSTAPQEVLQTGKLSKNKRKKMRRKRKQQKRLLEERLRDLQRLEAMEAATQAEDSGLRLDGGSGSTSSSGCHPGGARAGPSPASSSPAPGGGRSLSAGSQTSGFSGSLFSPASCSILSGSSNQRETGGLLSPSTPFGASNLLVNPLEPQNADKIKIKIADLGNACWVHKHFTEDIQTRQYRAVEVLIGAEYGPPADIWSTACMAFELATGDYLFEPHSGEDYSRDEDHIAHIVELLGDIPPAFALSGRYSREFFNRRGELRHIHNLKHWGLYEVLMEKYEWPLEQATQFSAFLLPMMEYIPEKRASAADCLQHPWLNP

PRKG2 (human) = PRKG2 (human) (UniProt Q13237)
EPHA4 (human) = EPHA4 (human) (UniProt P54764)
STK3 (human) = STK3 (human) (UniProt Q13188)
[3] = system: KIT (human), P10721 [V559D/V654A]
FLT4 (human) = FLT4 (human) (UniProt P35916)
FLT4 (human), sequence (P35916 whole entry, looked up): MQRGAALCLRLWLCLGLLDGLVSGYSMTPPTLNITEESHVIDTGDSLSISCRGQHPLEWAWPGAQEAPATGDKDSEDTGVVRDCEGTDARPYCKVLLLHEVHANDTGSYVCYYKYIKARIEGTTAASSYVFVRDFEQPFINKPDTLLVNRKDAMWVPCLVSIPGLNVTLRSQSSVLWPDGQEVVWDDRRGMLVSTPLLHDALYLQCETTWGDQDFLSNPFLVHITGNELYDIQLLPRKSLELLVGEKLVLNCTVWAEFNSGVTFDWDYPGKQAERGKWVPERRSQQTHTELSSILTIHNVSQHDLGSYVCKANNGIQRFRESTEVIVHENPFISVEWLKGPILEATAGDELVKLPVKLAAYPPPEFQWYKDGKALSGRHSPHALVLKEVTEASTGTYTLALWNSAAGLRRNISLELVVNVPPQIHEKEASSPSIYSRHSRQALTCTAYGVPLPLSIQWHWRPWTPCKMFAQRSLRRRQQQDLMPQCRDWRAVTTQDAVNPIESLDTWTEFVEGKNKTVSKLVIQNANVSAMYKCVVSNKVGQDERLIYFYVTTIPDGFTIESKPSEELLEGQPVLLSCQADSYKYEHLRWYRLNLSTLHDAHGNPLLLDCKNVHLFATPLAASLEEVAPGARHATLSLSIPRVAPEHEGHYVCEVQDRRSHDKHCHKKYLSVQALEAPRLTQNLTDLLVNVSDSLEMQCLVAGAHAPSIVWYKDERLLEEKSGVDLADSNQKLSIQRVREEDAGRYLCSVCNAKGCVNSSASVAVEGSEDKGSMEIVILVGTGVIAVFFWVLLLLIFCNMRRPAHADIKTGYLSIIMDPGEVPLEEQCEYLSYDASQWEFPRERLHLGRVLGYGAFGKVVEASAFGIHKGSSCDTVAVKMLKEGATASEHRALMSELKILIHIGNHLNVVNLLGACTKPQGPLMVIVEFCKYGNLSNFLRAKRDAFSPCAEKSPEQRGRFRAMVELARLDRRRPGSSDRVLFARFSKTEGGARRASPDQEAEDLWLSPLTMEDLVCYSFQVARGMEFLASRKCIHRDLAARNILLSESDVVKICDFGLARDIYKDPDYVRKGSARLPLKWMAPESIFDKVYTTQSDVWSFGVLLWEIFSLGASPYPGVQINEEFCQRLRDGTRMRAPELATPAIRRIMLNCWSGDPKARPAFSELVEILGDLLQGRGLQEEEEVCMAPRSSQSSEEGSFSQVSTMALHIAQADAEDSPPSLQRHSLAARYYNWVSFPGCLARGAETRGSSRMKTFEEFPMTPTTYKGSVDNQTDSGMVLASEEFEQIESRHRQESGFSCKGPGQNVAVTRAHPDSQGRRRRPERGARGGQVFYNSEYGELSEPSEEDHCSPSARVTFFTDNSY

LCK (human) = LCK (human) (UniProt P06239)
RPS6KB1 (human) = RPS6KB1 (human) (UniProt P23443)
MARK2 (human) = MARK2 (human) (UniProt Q7KZI7)
MARK3 (human) = MARK3 (human) (UniProt P27448)
[4] = system: PIK3CA (human), P42336 [E545K]
PIK3CA (human), P42336 [E545K], sequence (P42336 whole entry E545K, looked up): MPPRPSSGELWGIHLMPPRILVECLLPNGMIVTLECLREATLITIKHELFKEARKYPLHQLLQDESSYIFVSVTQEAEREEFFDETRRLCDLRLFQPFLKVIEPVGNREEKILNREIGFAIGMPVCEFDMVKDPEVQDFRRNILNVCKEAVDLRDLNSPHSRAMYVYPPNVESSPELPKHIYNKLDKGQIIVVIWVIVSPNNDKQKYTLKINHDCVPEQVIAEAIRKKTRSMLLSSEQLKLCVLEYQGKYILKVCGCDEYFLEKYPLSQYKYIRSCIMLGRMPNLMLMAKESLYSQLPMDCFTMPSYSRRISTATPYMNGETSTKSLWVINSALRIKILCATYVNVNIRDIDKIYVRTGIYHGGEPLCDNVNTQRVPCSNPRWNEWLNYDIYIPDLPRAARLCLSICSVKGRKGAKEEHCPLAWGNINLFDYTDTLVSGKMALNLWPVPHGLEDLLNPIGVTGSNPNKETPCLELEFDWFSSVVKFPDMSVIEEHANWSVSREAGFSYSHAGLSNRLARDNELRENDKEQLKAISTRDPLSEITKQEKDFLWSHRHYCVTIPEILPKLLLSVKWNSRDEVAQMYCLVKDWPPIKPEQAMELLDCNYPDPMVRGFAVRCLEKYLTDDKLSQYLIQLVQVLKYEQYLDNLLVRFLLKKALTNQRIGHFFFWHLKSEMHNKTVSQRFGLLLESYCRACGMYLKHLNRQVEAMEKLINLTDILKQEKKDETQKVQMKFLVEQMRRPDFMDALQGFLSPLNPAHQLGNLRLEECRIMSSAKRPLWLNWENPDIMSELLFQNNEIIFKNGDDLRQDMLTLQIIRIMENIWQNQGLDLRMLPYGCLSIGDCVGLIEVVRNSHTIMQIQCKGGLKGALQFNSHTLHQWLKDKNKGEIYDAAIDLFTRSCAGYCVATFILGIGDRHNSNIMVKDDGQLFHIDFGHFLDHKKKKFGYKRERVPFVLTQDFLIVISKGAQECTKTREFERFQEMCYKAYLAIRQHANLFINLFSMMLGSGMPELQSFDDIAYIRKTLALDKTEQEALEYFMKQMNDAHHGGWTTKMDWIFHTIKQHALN

PIM3 (human) = PIM3 (human) (UniProt Q86V86)
PRKACB (human) = PRKACB (human) (UniProt P22694)
PRKX (human) = PRKX (human) (UniProt P51817)
SIK2 (human) = SIK2 (human) (UniProt Q9H0K1)
CAMK2D (human) = CAMK2D (human) (UniProt Q13557)
CAMK2D (human), sequence (Q13557 whole entry, looked up): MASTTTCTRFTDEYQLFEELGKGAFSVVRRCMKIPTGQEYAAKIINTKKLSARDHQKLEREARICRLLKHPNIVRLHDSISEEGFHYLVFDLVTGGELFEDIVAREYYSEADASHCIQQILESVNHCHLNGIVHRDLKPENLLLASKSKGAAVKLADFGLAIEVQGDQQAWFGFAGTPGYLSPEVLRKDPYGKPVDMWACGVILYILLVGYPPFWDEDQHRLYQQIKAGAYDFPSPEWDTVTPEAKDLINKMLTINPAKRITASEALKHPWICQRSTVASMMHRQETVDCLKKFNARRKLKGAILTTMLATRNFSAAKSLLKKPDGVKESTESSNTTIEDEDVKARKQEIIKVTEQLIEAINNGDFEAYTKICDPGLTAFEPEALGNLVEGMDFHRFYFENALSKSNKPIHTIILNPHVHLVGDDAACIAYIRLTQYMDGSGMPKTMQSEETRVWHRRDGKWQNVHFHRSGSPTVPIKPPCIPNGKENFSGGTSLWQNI

NEK9 (human) = NEK9 (human) (UniProt Q8TD19)
TIE1 (human) = TIE1 (human) (UniProt P35590)
KIT (human) = KIT (human) (UniProt P10721)
[5] = system: EGFR (human), P00533 [T790M]
IRAK4 (human) = IRAK4 (human) (UniProt Q9NWZ3)
DAPK3 (human) = DAPK3 (human) (UniProt O43293)
CHEK1 (human) = CHEK1 (human) (UniProt O14757)
ERBB3 (human) = ERBB3 (human) (UniProt P21860)
MAST1 (human) = MAST1 (human) (UniProt Q9Y2H9)
INSR (human) = INSR (human) (UniProt P06213)
PRKCQ (human) = PRKCQ (human) (UniProt Q04759)

CDK14 (human), sequence (O94921 whole entry, looked up): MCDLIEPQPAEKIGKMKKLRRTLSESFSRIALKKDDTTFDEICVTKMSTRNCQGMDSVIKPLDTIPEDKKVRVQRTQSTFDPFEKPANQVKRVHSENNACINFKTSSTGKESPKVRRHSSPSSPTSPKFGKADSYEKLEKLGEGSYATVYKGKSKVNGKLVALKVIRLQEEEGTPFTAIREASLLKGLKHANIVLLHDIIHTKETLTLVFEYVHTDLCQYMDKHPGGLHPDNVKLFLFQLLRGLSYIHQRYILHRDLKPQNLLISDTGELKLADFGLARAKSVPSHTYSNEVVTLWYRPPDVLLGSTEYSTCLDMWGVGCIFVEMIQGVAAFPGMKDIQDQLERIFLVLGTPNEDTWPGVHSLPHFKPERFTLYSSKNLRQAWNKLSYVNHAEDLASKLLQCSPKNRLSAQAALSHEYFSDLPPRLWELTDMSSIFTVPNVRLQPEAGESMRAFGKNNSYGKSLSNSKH

## COCCNCCCn1c(C(=O)CF)c(-c2ccc(C)cc2)c2c(N)ncnc21
VRK2 (human)
  kinase still bound, per cent of control: 100%
[1]
  kinase still bound, per cent of control: 100%
CDK15 (human)
  kinase still bound, per cent of control: 100%
CDK9 (human)
  kinase still bound, per cent of control: 100%
EIF2AK2 (human)
  kinase still bound, per cent of control: 90%
CDK14 (human)
  kinase still bound, per cent of control: 100%
ACVR1B (human)
  kinase still bound, per cent of control: 91%
CDKL1 (human)
  kinase still bound, per cent of control: 100%
FYN (human)
  kinase still bound, per cent of control: 87%
PDPK1 (human)
  kinase still bound, per cent of control: 100%
ROS1 (human)
  kinase still bound, per cent of control: 100%
MST1R (human)
  kinase still bound, per cent of control: 100%
DAPK2 (human)
  kinase still bound, per cent of control: 97%
[2]
  kinase still bound, per cent of control: 96%
RET (human)
  kinase still bound, per cent of control: 88%
CAMK4 (human)
  kinase still bound, per cent of control: 100%
SRPK3 (human)
  kinase still bound, per cent of control: 78%
PRKG2 (human)
  kinase still bound, per cent of control: 98%
EPHA4 (human)
  kinase still bound, per cent of control: 96%
STK3 (human)
  kinase still bound, per cent of control: 95%
[3]
  kinase still bound, per cent of control: 94%
FLT4 (human)
  kinase still bound, per cent of control: 98%
LCK (human)
  kinase still bound, per cent of control: 65%
RPS6KB1 (human)
  kinase still bound, per cent of control: 100%
MARK2 (human)
  kinase still bound, per cent of control: 81%
MARK3 (human)
  kinase still bound, per cent of control: 100%
[4]
  kinase still bound, per cent of control: 100%
PIM3 (human)
  kinase still bound, per cent of control: 100%
PRKACB (human)
  kinase still bound, per cent of control: 96%
PRKX (human)
  kinase still bound, per cent of control: 80%
SIK2 (human)
  kinase still bound, per cent of control: 82%
CAMK2D (human)
  kinase still bound, per cent of control: 82%
NEK9 (human)
  kinase still bound, per cent of control: 99%
TIE1 (human)
  kinase still bound, per cent of control: 100%
KIT (human)
  kinase still bound, per cent of control: 77%
[5]
  kinase still bound, per cent of control: 100%
IRAK4 (human)
  kinase still bound, per cent of control: 100%
DAPK3 (human)
  kinase still bound, per cent of control: 97%
CHEK1 (human)
  kinase still bound, per cent of control: 100%
ERBB3 (human)
  kinase still bound, per cent of control: 96%
MAST1 (human)
  kinase still bound, per cent of control: 83%
INSR (human)
  kinase still bound, per cent of control: 84%
PRKCQ (human)
  kinase still bound, per cent of control: 99%
